From PubChem BioAssay AID1794829
Inconclusive results are not listed.

Target: Solute carrier family 2, facilitated glucose transporter member 2 (Homo sapiens) (UniProt P11168)
Assay: SLC2A2-mediated glucose transport in cells – cell-based, flow cytometry, glucose FRET sensor, HEK293 JumpIN TRex, wild type, dose response (AID 1794829)
Conditions: HEK293 JumpIN SLC2A2-OE

Chain of Solute carrier family 2, facilitated glucose transporter member 2 (Homo sapiens) (P11168 whole entry, looked up): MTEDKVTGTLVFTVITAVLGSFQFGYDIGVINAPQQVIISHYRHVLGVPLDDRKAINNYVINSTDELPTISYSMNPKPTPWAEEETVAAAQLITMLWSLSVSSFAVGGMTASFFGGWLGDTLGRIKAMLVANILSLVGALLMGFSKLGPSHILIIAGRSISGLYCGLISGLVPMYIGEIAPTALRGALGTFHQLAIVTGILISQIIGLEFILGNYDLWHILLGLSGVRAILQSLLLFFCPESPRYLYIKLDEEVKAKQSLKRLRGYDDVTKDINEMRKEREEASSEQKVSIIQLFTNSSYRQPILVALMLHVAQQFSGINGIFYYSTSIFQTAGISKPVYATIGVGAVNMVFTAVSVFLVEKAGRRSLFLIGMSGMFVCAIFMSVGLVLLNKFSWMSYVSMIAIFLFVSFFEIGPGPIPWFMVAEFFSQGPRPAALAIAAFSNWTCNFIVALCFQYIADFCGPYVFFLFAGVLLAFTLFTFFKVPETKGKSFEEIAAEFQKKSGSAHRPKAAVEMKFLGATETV

OC[C@H]1OC(O)[C@H](O)[C@@H](O)[C@@H]1O (stereo partly specified)
EC50 (substrate-induced FRET increase): 710 µM
